Earlier results on 1 compound are cited in US11325978B2, “Compositions and methods for treating beta-globinopathies” (priority 2018, dated 2022).

In the series the test system is RIOK3. To be noted: collection of 72 inhibitors against 456 human kinases (Davis et al. 2011).

As for `COc1cc(Nc2c(C#N)cnc3cc(OCCCN4CCN(C)CC4)c(OC)cc23)c(Cl)cc1Cl` [bosutinib, Bosutinib], the “inhibition of RIOK3 kinase activity” value is listed as “inhibit RIOK3 kinase activity”.
